A short description of series [1]: Cytotoxicity against human fR2 cells assessed as cell growth inhibition incubated for 44 hrs by MTT assay. The format is toxicity, cell-based. On the technique in general: Tetrazolium assays rely on reduction of a dye to a coloured formazan, in cell work by metabolically active cells.
In a further series the test system is A549. The experiment in a line: Antiproliferative activity against human A549 cells assessed as cell growth inhibition incubated for 44 hrs by MTT assay. The format is functional, cell-based. To be noted: A549, 44 h.
For a further series, the system named is HCT-116. The experiment in a line: Antiproliferative activity against human HCT-116 cells assessed as cell growth inhibition incubated for 44 hrs by MTT assay. The format is functional, cell-based. To be noted: HCT-116, 44 h.
The subject of another series is PC-3. The experiment in a line: Antiproliferative activity against human PC-3 cells assessed as cell growth inhibition incubated for 44 hrs by MTT assay. It counts as functional, cell-based. As to conditions: PC-3, 44 h.
A further series has as its system MCF7. The experiment in a line: Antiproliferative activity against human MCF7 cells assessed as cell growth inhibition incubated for 44 hrs by MTT assay. It counts as functional, cell-based. As to conditions: MCF7, 44 h.

Structures are written as SMILES.

In general, IC50 refers to the concentration needed to halve the response being measured. With `COC(=O)[C@]1([C@H]2CCNC2=O)NCCc2c1[nH]c1ccccc21`, the IC50 at 44 h in series [1] was above 100 µM. Also, the IC50 with A549 was 39.8 µM; in the series on HCT-116 it was 25.6 µM; in the series on PC-3 it was 75.1 µM; in the series with MCF7, above 100 µM.

For `COC(=O)[C@]1([C@H]2CCN(C(=O)c3ccccc3[N+](=O)[O-])C2=O)NCCc2c1[nH]c1ccccc21`, in series [1], the IC50 at 44 h is above 100 µM. Moreover, the IC50 in the series with A549 was above 100 µM; in the series with HCT-116, above 100 µM; in the series on PC-3, above 100 µM; in the series with MCF7, 51.3 µM.

Take `COC(=O)[C@]1([C@H]2CCN(C(=O)c3ccccc3[N+](=O)[O-])C2=O)NCCc2c1[nH]c1cc(OC)ccc21`: the IC50 at 44 h in series [1] was 17.8 µM. The IC50 is 12.7 µM in the series with A549, 6.19 µM with HCT-116, 31 µM in the series on PC-3 and 16.1 µM in the series with MCF7.

In the case of `COC(=O)[C@@H]1Cc2c([nH]c3ccccc23)[C@@](C(=O)OC)([C@H]2CCNC2=O)N1`, the IC50 at 44 h in series [1] is above 100 µM. In addition, the IC50 was 20.4 µM in the series on A549, 27.4 µM in the series with HCT-116, above 100 µM with PC-3 and above 100 µM in the series on MCF7.

As to `COC(=O)[C@]1([C@H]2CCNC2=O)NCCc2c1[nH]c1cc(OC)ccc21`, in series [1], the IC50 at 44 h is above 100 µM. The IC50 is 16.6 µM in the series on A549, above 100 µM in the series on HCT-116, above 100 µM with PC-3 and 81.6 µM in the series with MCF7.

For `COC(=O)[C@]1([C@H]2CCCCn3c2nc2ccccc2c3=O)NCCc2c1[nH]c1ccccc21`, the IC50 at 44 h in series [1] turned out to be 35.6 µM. Besides, the IC50 with A549 was 7.91 µM; in the series with HCT-116, 5.35 µM; in the series on PC-3 it was 6.47 µM; with MCF7, 6.95 µM.

In the case of `COC(=O)[C@]1([C@@H]2CCNC2=O)NCCc2c1[nH]c1cc(OC)ccc21`, the IC50 at 44 h in series [1] was above 100 µM. Further, the IC50 is above 100 µM in the series with A549, 7.48 µM with HCT-116, 91.7 µM with PC-3 and above 100 µM in the series with MCF7.

For the compound `COC(=O)[C@@H]1Cc2c([nH]c3ccccc23)[C@@](C(=O)OC)([C@H]2CCCn3c2nc2ccccc2c3=O)N1`, in series [1], the IC50 at 44 h was 33.2 µM. The IC50 in the series on A549 came to 10.4 µM; in the series on HCT-116, 6.26 µM; in the series on PC-3, 13 µM; with MCF7, 6.2 µM.

Regarding `COC(=O)[C@]1([C@H]2CCCN(C(=O)c3ccccc3[N+](=O)[O-])C2=O)NCCc2c1[nH]c1ccccc21`, in series [1], the IC50 at 44 h was above 100 µM. For the same compound, the IC50 with A549 is 39.1 µM; in the series with HCT-116 it was 42.2 µM; with PC-3, above 100 µM; in the series on MCF7 it was 51.2 µM.

As for `COC(=O)[C@]1([C@H]2CCCNC2=O)NCCc2c1[nH]c1ccccc21`, the IC50 at 44 h in series [1] was above 100 µM. Moreover, the IC50 in the series with A549 was above 100 µM; in the series with HCT-116, above 100 µM; in the series with PC-3, 35 µM; with MCF7, above 100 µM.

Regarding `COC(=O)[C@@H]1Cc2c([nH]c3ccccc23)[C@@](C(=O)OC)([C@H]2CCCN(C(=O)c3ccccc3[N+](=O)[O-])C2=O)N1`, the IC50 at 44 h in series [1] was above 100 µM. The IC50 with A549 is 19.4 µM; in the series on HCT-116 it was above 100 µM; in the series with PC-3, above 100 µM; in the series on MCF7, above 100 µM.

As for `COC(=O)[C@]1([C@H]2CCCn3c2nc2ccccc2c3=O)NCCc2c1[nH]c1ccccc21`, the IC50 at 44 h in series [1] was 93.6 µM. Besides, the IC50 with A549 worked out at 6.88 µM; in the series with HCT-116, 4.15 µM; in the series on PC-3, 4.95 µM; in the series on MCF7, 3.28 µM.

As to `COC(=O)[C@]1([C@H]2CCCCN(C(=O)c3ccccc3[N+](=O)[O-])C2=O)NCCc2c1[nH]c1ccccc21`, the IC50 at 44 h in series [1] turned out to be 30.2 µM. Moreover, the IC50 with A549 amounted to 35.8 µM; with HCT-116, 15.1 µM; in the series on PC-3, 36.5 µM; in the series with MCF7 it was 7.43 µM.

`COC(=O)[C@]1([C@H]2CCCCNC2=O)NCCc2c1[nH]c1ccccc21`: the IC50 at 44 h in series [1] was above 100 µM. Also, the IC50 in the series with A549 is above 100 µM; with HCT-116 it was above 100 µM; in the series on PC-3, above 100 µM; with MCF7, 93.3 µM.

For the compound `COC(=O)[C@]1([C@H]2CCN(C(=O)c3ccc(C(F)(F)F)cc3Cl)C2=O)NCCc2c1[nH]c1ccccc21` (racemic), the IC50 at 44 h in series [1] was 39.2 µM. Further, the half-inhibitory concentration (IC50) is 0.845 µM in the series on A549, 3 µM in the series on HCT-116, 13.5 µM with PC-3 and 4.51 µM with MCF7.

For `COC(=O)[C@]1([C@H]2CCN(C(=O)C3CCC3)C2=O)NCCc2c1[nH]c1ccccc21` (racemic), the IC50 at 44 h in series [1] is above 100 µM. The IC50 in the series with A549 is 23.7 µM; in the series with HCT-116, 25.6 µM; in the series on PC-3, above 100 µM; in the series on MCF7 it was above 100 µM.

In the case of `COC(=O)[C@]1([C@H]2CCN(C(=O)c3ccc(Cl)cc3[N+](=O)[O-])C2=O)NCCc2c1[nH]c1ccccc21` (racemic), in series [1], the IC50 at 44 h is above 100 µM. The IC50 in the series on A549, in the series with HCT-116, with PC-3 and with MCF7 was above 100 µM each time.

With `COC(=O)[C@]1([C@H]2CCN(C(=O)c3ccc(Cl)cc3)C2=O)NCCc2c1[nH]c1ccccc21` (racemic), the IC50 at 44 h in series [1] was above 100 µM. Moreover, the IC50 was 20.4 µM in the series with A549, 19.7 µM with HCT-116, above 100 µM with PC-3 and above 100 µM in the series on MCF7.

As for `COC(=O)[C@]1([C@H]2CCN(C(=O)c3ccccc3F)C2=O)NCCc2c1[nH]c1ccccc21` (racemic), the IC50 at 44 h in series [1] is above 100 µM. The IC50 was found to be 6.45 µM with A549, 8.65 µM in the series on HCT-116, 5.96 µM in the series with PC-3 and 6.96 µM in the series with MCF7.

As for `COC(=O)[C@]1([C@H]2CCN(C(=O)c3ccc(C)cc3[N+](=O)[O-])C2=O)NCCc2c1[nH]c1ccccc21` (racemic), the IC50 at 44 h in series [1] was above 100 µM. Besides, the IC50 was 16.3 µM in the series on A549, above 100 µM in the series on HCT-116, above 100 µM in the series on PC-3 and above 100 µM in the series on MCF7.

Consider `COC(=O)[C@]1([C@H]2CCCN(C(=O)c3ccccc3Cl)C2=O)NCCc2c1[nH]c1ccccc21` (racemic), for which the IC50 at 44 h in series [1] was above 100 µM. The 50% inhibitory concentration (IC50) is 5.21 µM in the series on A549, 5.34 µM in the series with HCT-116, 43.7 µM with PC-3 and 47.7 µM with MCF7.

With `CCOC(=O)[C@]1([C@H]2CCN(C(=O)c3ccccc3[N+](=O)[O-])C2=O)NCCc2c1[nH]c1ccccc21` (racemic), the IC50 at 44 h in series [1] is above 100 µM. For the same compound, the IC50 in the series with A549 was 10.7 µM; in the series on HCT-116, above 100 µM; in the series with PC-3 it was above 100 µM; in the series with MCF7, 28.1 µM.

`COC(=O)[C@]1([C@H]2CCN(C(=O)c3ccccc3)C2=O)NCCc2c1[nH]c1ccccc21` (racemic): the IC50 at 44 h in series [1] is above 100 µM. The IC50 with A549 was 17.3 µM; with HCT-116, 16.4 µM; in the series on PC-3, above 100 µM; in the series on MCF7, above 100 µM.

Take `COC(=O)[C@]1([C@H]2CCN(C(=O)c3ccccc3Br)C2=O)NCCc2c1[nH]c1ccccc21` (racemic): the IC50 at 44 h in series [1] was 89.8 µM. The IC50 with A549 is 3.37 µM; with HCT-116, 3.92 µM; in the series on PC-3, 6.23 µM; in the series on MCF7, 8.12 µM.

Turning to `COC(=O)[C@]1([C@H]2CCN(C(=O)c3ccccc3Cl)C2=O)NCCc2c1[nH]c1ccccc21` (racemic), in series [1], the half-maximal inhibitory concentration (IC50) at 44 h stood at 20 µM. The IC50 in the series on A549 turned out to be 1.12 µM; with HCT-116 it was 4.12 µM; with PC-3, 2.39 µM; with MCF7, 1.62 µM.

For the compound `COC(=O)[C@]1([C@H]2CCN(C(=O)c3ccc(C)cc3C)C2=O)NCCc2c1[nH]c1ccccc21` (racemic), in series [1], the IC50 at 44 h was above 100 µM. Further, the IC50 in the series with A549 is 16.3 µM; with HCT-116, 11.2 µM; in the series with PC-3, 59.7 µM; in the series with MCF7, above 100 µM.

`CCOC(=O)[C@]1([C@H]2CCNC2=O)NCCc2c1[nH]c1ccccc21` (racemic): in series [1], the IC50 at 44 h is above 100 µM. In addition, the IC50 in the series with A549, in the series on HCT-116, with PC-3 and with MCF7 was above 100 µM throughout.

Take `COC(=O)[C@]1([C@H]2CCN(C(=O)c3ccc(F)cc3)C2=O)NCCc2c1[nH]c1ccccc21` (racemic): in series [1], the IC50 at 44 h amounted to 35.8 µM. Moreover, the IC50 in the series with A549 is 7.8 µM; with HCT-116 it was 10.1 µM; with PC-3, 17 µM; in the series with MCF7 it was above 5.04 µM.

As for `COC(=O)[C@]1([C@H]2CCN(C(=O)c3cccs3)C2=O)NCCc2c1[nH]c1ccccc21` (racemic), the IC50 at 44 h in series [1] was determined as 39.2 µM. Besides, the IC50 in the series on A549 was 17.9 µM; in the series on HCT-116 it was 14 µM; in the series on PC-3 it was 94.4 µM; in the series on MCF7 it was 15.9 µM.

As for `CCOC(=O)[C@]1([C@H]2CCN(C(=O)c3ccccc3Cl)C2=O)NCCc2c1[nH]c1ccccc21` (racemic), the IC50 at 44 h in series [1] was found to be 84 µM. For the same compound, the IC50 with A549 turned out to be 72.8 µM; in the series on HCT-116, 55.8 µM; in the series with PC-3, 22.8 µM; in the series with MCF7, 20.4 µM.

For `COC(=O)[C@]1([C@H]2CCN(C(=O)c3ccccc3I)C2=O)NCCc2c1[nH]c1ccccc21` (racemic), the IC50 at 44 h in series [1] is above 100 µM. Besides, the IC50 came out at 5.02 µM in the series with A549, 5.76 µM with HCT-116, 7.02 µM in the series on PC-3 and 8.36 µM in the series on MCF7.

As to `COC(=O)[C@]1([C@H]2CCN(C(=O)c3ccc(Cl)cc3Cl)C2=O)NCCc2c1[nH]c1ccccc21` (racemic), in series [1], the IC50 at 44 h is above 100 µM. Further, the IC50 came out at 10.8 µM with A549, 8.79 µM in the series on HCT-116, 11.1 µM in the series with PC-3 and 8.36 µM in the series on MCF7.
